The source of these data is patent US20210122730A1, “GLUCOCORTICOID RECEPTOR MODULATORS” (ORIC Pharmaceuticals, Inc., priority 2017, published 2021).

For data set [1], the target named is T1, CYP2C8 (Homo sapiens, UniProt P10632).
T1 construct: Pooled human microsomes were obtained from Sekisui XenoTech, KS; tissue Sekisui XenoTech, KS; host or cells: pooled human liver microsomes
T1 sequence (P10632 1-490): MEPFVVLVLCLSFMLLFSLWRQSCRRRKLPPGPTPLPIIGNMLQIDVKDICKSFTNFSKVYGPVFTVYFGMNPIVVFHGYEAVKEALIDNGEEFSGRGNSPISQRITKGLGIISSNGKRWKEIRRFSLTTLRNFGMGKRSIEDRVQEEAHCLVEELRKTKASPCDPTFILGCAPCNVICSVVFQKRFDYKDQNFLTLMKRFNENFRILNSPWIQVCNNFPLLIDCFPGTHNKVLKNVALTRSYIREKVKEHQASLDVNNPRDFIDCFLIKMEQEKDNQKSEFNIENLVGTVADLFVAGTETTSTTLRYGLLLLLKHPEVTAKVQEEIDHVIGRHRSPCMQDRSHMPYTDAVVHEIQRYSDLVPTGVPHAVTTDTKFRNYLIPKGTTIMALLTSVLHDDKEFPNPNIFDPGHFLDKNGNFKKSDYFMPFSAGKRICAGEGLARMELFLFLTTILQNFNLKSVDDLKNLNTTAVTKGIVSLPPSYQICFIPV
As to the kind of experiment: CYP Inhibition Assay (CYP2C8, human liver microsomes, paclitaxel substrate). It counts as in vitro ADME. The conditions noted are these: pH 7.4; pooled human liver microsomes 0.1 mg/mL, probe substrate paclitaxel. Put shortly: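 Pooled human liver microsomes (0.1 mg/mL) in 50 mM potassium phosphate pH 7.4 with compound, started with 1 mM NADPH, 5 min at 37° C, duplicate.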
Background: Microsomes from liver hold many membrane-bound enzymes, among them those of drug oxidation.

Data set [2] concerns the target T2, GR (Homo sapiens, UniProt P04150).
T2 construct: expressed in transfected cells; host or cells: CHO-K1
T2 sequence (P04150 1-777): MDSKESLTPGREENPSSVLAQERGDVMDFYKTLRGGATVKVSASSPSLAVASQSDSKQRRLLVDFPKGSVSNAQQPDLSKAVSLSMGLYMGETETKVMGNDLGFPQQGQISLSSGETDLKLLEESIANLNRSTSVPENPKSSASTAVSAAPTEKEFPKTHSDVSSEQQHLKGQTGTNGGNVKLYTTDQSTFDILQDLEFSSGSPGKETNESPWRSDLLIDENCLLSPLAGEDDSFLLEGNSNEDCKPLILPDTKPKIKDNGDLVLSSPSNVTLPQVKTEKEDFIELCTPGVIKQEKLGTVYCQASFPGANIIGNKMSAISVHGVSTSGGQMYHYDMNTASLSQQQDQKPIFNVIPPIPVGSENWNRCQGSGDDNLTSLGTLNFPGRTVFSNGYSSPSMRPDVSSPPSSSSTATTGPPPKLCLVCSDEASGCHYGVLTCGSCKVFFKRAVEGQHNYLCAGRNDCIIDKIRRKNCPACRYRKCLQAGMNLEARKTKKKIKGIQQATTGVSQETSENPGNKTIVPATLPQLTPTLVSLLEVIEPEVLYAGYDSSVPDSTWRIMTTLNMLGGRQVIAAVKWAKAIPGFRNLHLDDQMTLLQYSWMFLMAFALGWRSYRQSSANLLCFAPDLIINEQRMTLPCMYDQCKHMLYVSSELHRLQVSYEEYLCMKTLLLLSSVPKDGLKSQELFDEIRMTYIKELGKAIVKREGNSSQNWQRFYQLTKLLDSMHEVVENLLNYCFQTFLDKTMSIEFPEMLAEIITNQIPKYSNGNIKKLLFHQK
The data set is described as follows: In Vitro GR Luciferase Reporter Assay (antagonist mode, CHO-K1-GR-MMTV-Luc reporter cells). Conditions: antagonist mode, 10 nM Dexamethasone. It counts as cell-based. Put shortly: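 CHO-K1-GR-MMTV-Luc cells in phenol red-free DMEM with 10% CSS, stimulated with 10 nM dexamethasone (final) and treated with 8-point 1:5 compound dilutions for about 18-24 h at 37° C. Luciferase measured by OneGlo luminescence; IC50 derived for inhibition of GR activity.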

Usually inhibition stands for how much of the control response was suppressed. The low end stands for a weak effect, the high end for a strong effect. For orientation: IC50 means the concentration that inhibits the measured activity by half.

Consider `Cn1ncc(S(=O)(=O)N(C2CC2)[C@H]2CCC3=Cc4c(cnn4-c4ccc(F)cc4)C[C@]3(C(=O)c3cc(Cl)ccn3)C2)n1` [Example 262, N-((4aS,6S)-4a-(4-chloropicolinoyl)-1-(4-fluorophenyl)-4,4a,5,6,7,8-hexahydro-1H-benzo[f]indazol-6-yl)-N-cyclopropyl-2-methyl-2H-1,2,3-triazole-4-sulfonamide], for which the inhibition at 5 min in data set [1] fell in the range of 50 to 75%. Moreover, the IC50 in data set [2] was ≤ 100 nM.

In data set [1], `Cn1ncc(S(=O)(=O)N(C2CC2)[C@H]2CCC3=Cc4c(cnn4-c4ccc(F)cc4)C[C@]3(C(=O)c3cc(F)ccn3)C2)n1` [Example 263, N-cyclopropyl-N-((4aS,6S)-1-(4-fluorophenyl)-4a-(4-fluoropicolinoyl)-4,4a,5,6,7,8-hexahydro-1H-benzo[f]indazol-6-yl)-2-methyl-2H-1,2,3-triazole-4-sulfonamide] registered an inhibition at 5 min of 75 to 90%. Besides, the IC50 in data set [2] was ≤ 100 nM.

In data set [1], `Cn1cc(S(=O)(=O)N(C2CC2)[C@H]2CCC3=Cc4c(cnn4-c4ccc(F)cc4)C[C@]3(C(=O)c3cc(F)ccn3)C2)nn1` [Example 265, N-cyclopropyl-N-((4aS,6S)-1-(4-fluorophenyl)-4a-(4-fluoropicolinoyl)-4,4a,5,6,7,8-hexahydro-1H-benzo[f]indazol-6-yl)-1-methyl-1H-1,2,3-triazole-4-sulfonamide] registered an inhibition at 5 min of 50 to 75%. For the same compound, in data set [2], the IC50 is ≤ 100 nM.

`Cn1ccnc1S(=O)(=O)N(C1CC1)[C@H]1CCC2=Cc3c(cnn3-c3ccc(F)cc3)C[C@]2(C(=O)c2ncc(C(F)(F)F)s2)C1` [Example 266, N-cyclopropyl-N-((4aS,6S)-1-(4-fluorophenyl)-4a-(5 (trifluoromethyl)thiazole-2-carbonyl)-4,4a,5,6,7,8-hexahydro-1H-benzo[f]indazol-6-yl)-1-methyl-1H-imidazole-2-sulfonamide] gave an inhibition at 5 min in data set [1] of 75 to 90%. Moreover, the IC50 in data set [2] was ≤ 100 nM.

Turning to `Cn1ccc(S(=O)(=O)N(C2CC(F)(F)C2)[C@H]2CCC3=Cc4c(cnn4-c4ccc(F)cc4)C[C@]3(C(=O)c3cc(F)ccn3)C2)n1` [Example 267, N-(3,3-difluorocyclobutyl)-N-((4aS,6S)-1-(4-fluorophenyl)-4a-(4-fluoropicolinoyl)-4,4a,5,6,7,8-hexahydro-1H-benzo[f]indazol-6-yl)-1-methyl-1H-pyrazole-3-sulfonamide], the inhibition at 5 min in data set [1] fell in the range of 50 to 75%. Besides, the IC50 in data set [2] is ≤ 100 nM.

Regarding `Cn1cc(S(=O)(=O)N(C2CC2)[C@H]2CCC3=Cc4c(cnn4-c4ccc(F)cc4)C[C@]3(C(=O)c3cc(Cl)ccn3)C2)nn1` [Example 268, N-((4aS,6S)-4a-(4-chloropicolinoyl)-1-(4-fluorophenyl)-4,4a,5,6,7,8-hexahydro-1H-benzo[f]indazol-6-yl)-N-cyclopropyl-1-methyl-1H-1,2,3-triazole-4-sulfonamide], in data set [1], the inhibition at 5 min lay within 50 to 75%. The IC50 in data set [2] is ≤ 100 nM.

In turn, `CC(C)N([C@H]1CCC2=Cc3c(cnn3-c3ccc(F)cc3)C[C@]2(C(=O)c2cc(Cl)ccn2)C1)S(=O)(=O)c1cnn(C)n1` [Example 269, N-((4aS,6S)-4a-(4-chloropicolinoyl)-1-(4-fluorophenyl)-4,4a,5,6,7,8-hexahydro-1H-benzo[f]indazol-6-yl)-N-isopropyl-2-methyl-2H-1,2,3-triazole-4-sulfonamide] came in with an inhibition at 5 min in data set [1] of 75 to 90%. The IC50 in data set [2] was ≤ 100 nM.

Consider `Cn1ccc(S(=O)(=O)[C@H]2CCC3=Cc4c(cnn4-c4ccc(F)cc4)C[C@]3(C(=O)c3ccc(C(F)(F)F)cn3)C2)n1` [Example 272, ((4aS,6S)-1-(4-fluorophenyl)-6-((1-methyl-1H-pyrazol-3-yl)sulfonyl)-1,4,5,6,7,8-hexahydro-4aH-benzo[f]indazol-4a-yl)(5-(trifluoromethyl)pyridin-2-yl)methanone], for which the inhibition at 5 min in data set [1] was ≤ 25%. In data set [2], the IC50 is ≤ 100 nM.

In the case of `O=C(c1cc(C(F)(F)F)ccn1)[C@]12Cc3cnn(-c4ccc(F)cc4)c3C=C1CC[C@H](N(CC1CC1)S(=O)(=O)c1ccc(F)cc1)C2` [Example 273, N-(cyclopropylmethyl)-4-fluoro-N-((4aS,6S)-1-(4-fluorophenyl)-4a-(4-(trifluoromethyl)picolinoyl)-4,4a,5,6,7,8-hexahydro-1H-benzo[f]indazol-6-yl)benzenesulfonamide], the inhibition at 5 min in data set [1] was ≤ 25%. For the same compound, the IC50 in data set [2] is ≤ 100 nM.

Regarding `CC(C)N([C@H]1CCC2=Cc3c(cnn3-c3ccc(F)cc3)C[C@]2(C(=O)c2cc(C(F)(F)F)ccn2)C1)S(=O)(=O)c1ccc(Cl)nc1` [Example 279, 6-chloro-N-((4aS,6S)-1-(4-fluorophenyl)-4a-(4-(trifluoromethyl)picolinoyl)-4,4a,5,6,7,8-hexahydro-1H-benzo[f]indazol-6-yl)-N-isopropylpyridine-3-sulfonamide], in data set [1], the inhibition at 5 min lay in the range of 50 to 75%. Besides, the half-maximal inhibitory concentration (IC50) in data set [2] was ≤ 100 nM.

In the case of `Cn1cc(S(=O)(=O)N(CC(F)(F)F)[C@H]2CCC3=Cc4c(cnn4-c4ccc(F)cc4)C[C@]3(C(=O)c3cc(Cl)ccn3)C2)cn1` [Example 280, N-((4aS,6S)-4a-(4-chloropicolinoyl)-1-(4-fluorophenyl)-4,4a,5,6,7,8-hexahydro-1H-benzo[f]indazol-6-yl)-1-methyl-N-(2,2,2-trifluoroethyl)-1H-pyrazole-4-sulfonamide], the inhibition at 5 min in data set [1] fell in the range of 25 to 50%. Besides, the IC50 in data set [2] is ≤ 100 nM.

`CC(C)N([C@H]1CCC2=Cc3c(cnn3-c3ccc(F)cc3)C[C@]2(C(=O)c2ncc(C(F)(F)F)s2)C1)S(=O)(=O)c1cn(C)nn1` [Example 282, N-((4aS,6S)-1-(4-fluorophenyl)-4a-(5-(trifluoromethyl)thiazole-2-carbonyl)-4,4a,5,6,7,8-hexahydro-1H-benzo[f]indazol-6-yl)-N-isopropyl-1-methyl-1H-1,2,3-triazole-4-sulfonamide] returned an inhibition at 5 min in data set [1] of 25 to 50%. Moreover, the IC50 in data set [2] was ≤ 100 nM.

Regarding `CC(C)N([C@H]1CCC2=Cc3c(cnn3-c3ccc(F)cc3)C[C@]2(C(=O)c2ncc(C(F)(F)F)s2)C1)S(=O)(=O)c1ccc(Cl)nc1` [Example 283, 6-chloro-N-((4aS,6S)-1-(4-fluorophenyl)-4a-(5-(trifluoromethyl)thiazole-2-carbonyl)-4,4a,5,6,7,8-hexahydro-1H-benzo[f]indazol-6-yl)-N-isopropylpyridine-3-sulfonamide], the inhibition at 5 min in data set [1] was ≤ 25%. For the same compound, the IC50 in data set [2] is ≤ 100 nM.

`CC(C)N([C@H]1CCC2=Cc3c(cnn3-c3ccc(F)cc3)C[C@]2(C(=O)c2cc(C(F)(F)F)ccn2)C1)S(=O)(=O)c1cn(C)nn1` [Example 286, N-((4aS,6S)-1-(4-fluorophenyl)-4a-(4-(trifluoromethyl)picolinoyl)-4,4a,5,6,7,8-hexahydro-1H-benzo[f]indazol-6-yl)-N-isopropyl-1-methyl-1H-1,2,3-triazole-4-sulfonamide] showed an inhibition at 5 min in data set [1] of 75 to 90%. The concentration for half-maximal inhibition (IC50) in data set [2] is ≤ 100 nM.

Regarding `O=C(c1cc(C(F)(F)F)ccn1)[C@]12Cc3cnn(-c4ccc(F)cc4)c3C=C1CC[C@H](N(C1CC1)S(=O)(=O)c1ccc(Cl)cn1)C2` [Example 287, 5-chloro-N-cyclopropyl-N-((4aS,6S)-1-(4-fluorophenyl)-4a-(4-(trifluoromethyl)picolinoyl)-4,4a,5,6,7,8-hexahydro-1H-benzo[f]indazol-6-yl)pyridine-2-sulfonamide], the inhibition at 5 min in data set [1] was in the range of 25 to 50%. In data set [2], the IC50 was ≤ 100 nM.

For the compound `Cn1ccc(S(=O)(=O)N([C@H]2CCC3=Cc4c(cnn4-c4ccc(F)cc4)C[C@]3(C(=O)c3cc(Cl)ccn3)C2)[C@H]2C[C@@](C)(O)C2)n1` [Example 288, N-((4aS,6S)-4a-(4-chloropicolinoyl)-1-(4-fluorophenyl)-4,4a,5,6,7,8-hexahydro-1H-benzo[f]indazol-6-yl)-N-((1s,3R)-3-hydroxy-3-methylcyclobutyl)-1-methyl-1H-pyrazole-3-sulfonamide], the inhibition at 5 min in data set [1] was ≤ 25%. Besides, the IC50 in data set [2] is ≤ 100 nM.
